We go through six compounds from patent EP0337167B1, “4-Aryl-4-piperidine (or pyrrolidine or hexahydroazepine) carbinols and heterocyclic analogs thereof” (THE DU PONT MERCK PHARMACEUTICAL COMPANY, priority 1988, dated 1989).

SMILES strings stand for the structures. Like-named read-outs stand apart in the source and are kept apart here.

For assay [1] the following is noted: literature statement (A. L. Morrison et al., J.Chem. Soc., 1467, 1950); cited from earlier work.
In a further assay the test system is Male CF1 mice. As to the kind of experiment: Mouse antiphenylquinone writhing (PQW) test. The assay is classed as in vivo. Conditions: Table 3; for ED50: Mus musculus, 0.5 h, phenylquinone 1.25 mg/kg i.p., observation beginning 30 min after injection of test compound; for Mouse PQW remark: remark beside S.C and P.O values. The protocol: The anti-pheylquinone writhing (PQW) test modified from the methods of Siegmund et al. (Proc. Soc. Exp. Biol. Med. 95: 729-731, 1957) and Blumberg et al. (Proc. Exp. Biol. Med. 118: 763-767, 1965) was used to assess analgesia in mice. Male CF1 mice (Charles River Breeding Laboratories, Wilmington, MA), fasted for 16-22 h and weighing 18-23 g, were injected with randomized and coded doses of test compounds, then challenged with 1.25 mg/kg i.p. phenyl-p-benzoquinone (phenylquinone) 5 min prior to the specified observation time. The phenylquinone solution (0.1 mg/ml in 5% aqueous ethanol) was prepared daily and stored in foil-wrapped amber bottles to limit degradation. Mice were observed 10 min for the presence or absence of the characteristic abdominal constriction and stretching response beginning 30 min after injection of the test compound. Analgetic activity was calculated as the percentage of mice failing to respond to the phenylquinone challenge dose. […] Median effective doses (ED50's) and 95% confidence limits were determined numerically by the methods of Thompson (Bacteriological Rev. 11: 115-145, 1947), and Litchfield and Wilcoxon (J. Pharmacol. Exp. Ther. 96: 99.113, 1949).
The data shown in Table show the PQW ED₅₀ values for the compounds of the aforesaid examples.
Table 4 illustrates that the 3° carbinols within the scope of U.S. 4,485,109 have utility as analgesic agents.

The next assay deals with Male CF mice. As to the kind of experiment: Antagonism of tetrabenazine-induced depression (exploratory loss and ptosis) in mice. The class given is in vivo. Conditions: Mus musculus, po, 1 h, orally, one hour post-drug, tetrabenazine methane sulfonate 52 mg/kg i.p. The text has this:
The prevention of tetrabenazine-induced sedation and depression in mice is a standard procedure used to detect and compare antidepressant compounds. The activity of antidepressant compounds in this procedure correlates well with human efficacy. (Barnett, et al., Int. J. Neuropharmac. 8: 73-79, 1969, and Vernier, et al., "The Pharmacodynamics of Amitriptyline" in Psychsomatic Medicine (Nodine & Moyer, editors) pp. 683-690, 1962).
Male CF mice (Charles River Breeding Laboratories, Wilmingon, MA), fasted for 16-22 hours and weighing 18-25 g, were injected with randomized and coded does of test compounds, then challenged with 52 mg/kg i.p. tetrabenazine methane sulfonate 30 minutes prior to the specified observation time. The tetrabenazine methane sulfonate solution (5.2 mg/ml in distilled water) was prepared daily and stored in foil-wrapped amber bottles to limit degradation. […] Exploratory loss was defined as failing to move to the perimeter of a 12.7 cm (5 inch) (12.7 cm) circle within 15 seconds of being placed at the center of the circle. Ptosis was defined as both eyelids closed 50% or more compared to normal. Antidepressant activity was calculated as the percentage of mice failing to respond to the tetrabenazine challenge dose. […] Median effective does (ED₅₀'s) were estimated using the Moving Average method of Thompson (Bacteriological Rev. 11: 115-145, 1947).
The data in Table 5 show ED₅₀ values for the compounds of the aforesaid examples.

In another assay the test system is Male mice. Nature of the assay: Anorexia test from CNS screen (consumption of sweetened condensed milk spots). The class given is in vivo. Conditions: Mus musculus; fasted male mice, oral doses, 0.5 h after administration, 10 min access to milk; read-out: ED₅₀ for Anorexia. The protocol: Male mice weighing 18-25 grams and fasted over-night for 17-21 h were used in these studies. At 0.5 h after administration of graded oral doses of compound prepared in aqueous Methocel® (methylcellulose, viscosity 100 mPa·s (CPS), grade A15C, Dow Chemical Co.) and dosed at 0.1 ml per 10 grams of body weight, each mouse was transferred to an individual, clear, Lucite® compartment (13.3 cm x 12.7 cm x 12.7 cm) with a wire mesh floor having 0.64 cm x 0.64 cm openings. Five compartments were linearly arranged in each cage unit. Inside each compartment was a section of a black Lucite® bar (13 cm x 1.2 cm x 1.2 cm), in the top of which were ten spot depressions (0.8 cm diameter), each containing 0.05 ml of 50% sweetened condensed milk. Ten (10) minutes later the mice were removed from to the compartments and the number of milk spots consumed by each mouse was counted. Fractions of spots consumed were also estimated and counted. Data were expressed as % decrease from control. ED₅₀ values were estimated using linear regression analysis.

The mark [2] stands for this setting: po, p.o., read-out: Mouse PQW ED₅₀ (Mg/Kg) P.O.
[3] abbreviates: sc, s.c., read-out: Mouse PQW ED₅₀ (Mg/Kg) S.C.
Where [4] appears, read: read-out: Oral ED₅₀ (mg/kg) for Prevention of Ptosis.

Turning to `CCC(O)C1(c2ccccc2)CCN(C)CC1` (stereo not shown) [4-phenyl-1-methyl-4-(1-hydroxypropyl)piperidine, reference compound], the “analgesic activity compared with the parent ketones” value in assay [1] was “much less active as analgesics than the parent ketones”.
On to `CC(O)C1(c2cccc(Cl)c2)CCN(C)CC1` (stereo not drawn) [Example 1, 4-(3'-Chlorophenyl)-α,1-dimethyl-4-piperidinemethanol], for which the ED50 was 19 mg/kg in the assay on Male CF1 mice (setting [2]); 8.1 mg/kg in the assay with Male CF1 mice (setting [3]); 0.92 mg/kg in the assay with Male CF mice (read-out: Oral ED₅₀ (mg/kg) for Prevention of Exploratory Loss); 0.74 mg/kg with Male CF mice (setting [4]); 20 mg/kg with Male mice.
For `CC(O)C1(c2ccccc2)CCN(C)CC1` (stereo not shown) [Example 3, 4-phenyl-1-methyl-4-(1-hydroxyethyl)piperidine], the figures for the ED50 in the assay with Male CF1 mice (setting [2]) and in the assay on Male CF1 mice (setting [3]) were 38 mg/kg and 19 mg/kg, respectively. In assay [1], the “analgesic activity compared with the parent ketones” value is reported as “much less active as analgesics than the parent ketones”.
For the compound `Cc1ccccc1C1(C(C)O)CCN(C)CC1` (stereo not shown) [Example 12], the ED50 with Male CF1 mice (setting [2]) is more than 81 mg/kg; in the assay with Male CF1 mice (setting [3]) it was more than 81 mg/kg; in the assay on Male CF mice (setting [4]), 1.03 mg/kg. Besides, the “Mouse PQW remark” value with Male CF1 mice was “Inactive”.
For the compound `CC(O)C1(c2ccc(C(F)(F)F)cc2)CCN(C)CC1` (stereo not drawn) [Example 16, 4(4'-Trifluoromethylphenyl)-α-1-dimethylpiperidinemethanol], the ED50 in the assay on Male CF1 mice (setting [2]) was more than 81 mg/kg; in the assay with Male CF1 mice (setting [3]) it was more than 81 mg/kg; in the assay on Male CF mice (setting [4]) it was 28 mg/kg; in the assay with Male mice it was 22 mg/kg. Also, the “Mouse PQW remark” value with Male CF1 mice is listed as “Inactive”.
As to `COc1ccc(C2(C(C)O)CCN(C)CC2)cc1` (stereo not shown) [Example 17], the ED50 was more than 81 mg/kg in the assay with Male CF1 mice (setting [2]), more than 81 mg/kg in the assay with Male CF1 mice (setting [3]) and 1.3 mg/kg in the assay on Male CF mice (setting [4]). For the same compound, the “Mouse PQW remark” value in the assay with Male CF1 mice is “Inactive”.
